SMILES strings stand for the structures. Converted amounts (≈) assume the structure as drawn.

Format in all cases: functional
The subject of assay [1] is Staphylococcus aureus. Description: In vitro antibacterial activity against Staphylococcus aureus.
Assay [2] concerns Staphylococcus hominis. Nature of the assay: In vitro antibacterial activity against Staphylococcus hominis.
Assay [3] relates to Streptococcus pneumoniae. Description: In vitro antibacterial activity against Streptococcus pneumoniae.
The subject of assay [4] is Staphylococcus epidermidis. Nature of the assay: In vitro antibacterial activity against Staphylococcus epidermidis.
The test system of assay [5] is Streptococcus. Description: In vitro antibacterial activity against Streptococcus.

As usually defined, the MIC is the smallest concentration in the dilution series that meets the test's criterion for growth inhibition. For `CC(=O)NC[C@H]1CN(c2ccc(N3CCN(S(=O)(=O)c4ccc(Br)cc4)CC3)c(F)c2)C(=O)O1`, the MIC in assay [1] was over 128 µg/mL; in assay [2], over 128 µg/mL; in assay [3], over 128 µg/mL; in assay [4] it was 128 µg/mL (≈ 230 µM); in assay [5], over 128 µg/mL.

`CC(=O)NC[C@H]1CN(c2ccc(N3CCN(S(=O)(=O)c4ccc(C)cc4)CC3)c(F)c2)C(=O)O1`: the MIC is 128 µg/mL (≈ 261 µM) in assay [1]; 64 µg/mL (≈ 130 µM) in assay [2]; over 128 µg/mL in assay [3]; 4 µg/mL (≈ 8.15 µM) in assay [4]; 128 µg/mL (≈ 261 µM) in assay [5].

For the molecule `CC(=O)NC[C@H]1CN(c2ccc(N3CCN(S(C)(=O)=O)CC3)c(F)c2)C(=O)O1`, the MIC was found to be 4 µg/mL (≈ 9.65 µM) in assay [1]; 2 µg/mL (≈ 4.83 µM) in assay [2]; 2 µg/mL (≈ 4.83 µM) in assay [3]; 0.5 µg/mL (≈ 1.21 µM) in assay [4]; 4 µg/mL (≈ 9.65 µM) in assay [5].

Consider `CC(=O)NC[C@H]1CN(c2ccc(N3CCN(S(=O)(=O)c4ccc(N)cc4)CC3)c(F)c2)C(=O)O1`, for which the MIC in assay [1] was found to be 16 µg/mL (≈ 32.6 µM); in assay [2] it was 0.25 µg/mL (≈ 0.509 µM); in assay [3], 16 µg/mL (≈ 32.6 µM); in assay [4] it was 0.25 µg/mL (≈ 0.509 µM); in assay [5], 16 µg/mL (≈ 32.6 µM).

For the molecule `CC(=O)NC[C@H]1CN(c2ccc(N3CCN(S(=O)(=O)c4ccccc4[N+](=O)[O-])CC3)c(F)c2)C(=O)O1`, the minimal inhibitory concentration (MIC) was 8 µg/mL (≈ 15.3 µM) in assay [1], 8 µg/mL (≈ 15.3 µM) in assay [3], 4 µg/mL (≈ 7.67 µM) in assay [4] and 8 µg/mL (≈ 15.3 µM) in assay [5].

In the case of `CC(=O)NC[C@H]1CN(c2ccc(N3CCN(S(=O)(=O)c4cccs4)CC3)c(F)c2)C(=O)O1`, the MIC in assay [1] turned out to be 16 µg/mL (≈ 33.2 µM); in assay [3], 4 µg/mL (≈ 8.29 µM); in assay [4], 4 µg/mL (≈ 8.29 µM); in assay [5], 4 µg/mL (≈ 8.29 µM).

Take `CC(=O)NC[C@H]1CN(c2ccc(N3CCN(S(=O)(=O)c4ccc([N+](=O)[O-])cc4)CC3)c(F)c2)C(=O)O1`: the MIC was determined as 128 µg/mL (≈ 245 µM) in assay [1]; 32 µg/mL (≈ 61.4 µM) in assay [2]; 128 µg/mL (≈ 245 µM) in assay [3]; 8 µg/mL (≈ 15.3 µM) in assay [4]; 128 µg/mL (≈ 245 µM) in assay [5].

On to `CC(=O)NC[C@H]1CN(c2ccc(N3CCN(S(=O)(=O)c4cccc(NC(C)=O)c4)CC3)c(F)c2)C(=O)O1`, for which the minimal inhibitory concentration (MIC) in assay [1], in assay [2], in assay [3], in assay [4] and in assay [5] was over 128 µg/mL in each case.

For the molecule `COc1ccc(S(=O)(=O)N2CCN(c3ccc(N4C[C@H](CNC(C)=O)OC4=O)cc3F)CC2)cc1`, the MIC is 16 µg/mL (≈ 31.6 µM) in assay [1]; 2 µg/mL (≈ 3.95 µM) in assay [2]; 8 µg/mL (≈ 15.8 µM) in assay [3]; 0.5 µg/mL (≈ 0.987 µM) in assay [4]; 16 µg/mL (≈ 31.6 µM) in assay [5].

On to `CC(=O)NC[C@H]1CN(c2ccc(N3CCN(S(=O)(=O)c4cccc(N)c4)CC3)c(F)c2)C(=O)O1`, for which the MIC in assay [1] stood at 0.5 µg/mL (≈ 1.02 µM); in assay [2] it was 0.25 µg/mL (≈ 0.509 µM); in assay [3] it was 1 µg/mL (≈ 2.03 µM); in assay [4], 0.25 µg/mL (≈ 0.509 µM); in assay [5], 1 µg/mL (≈ 2.03 µM).

For the molecule `CC(=O)NC[C@H]1CN(c2ccc(N3CCN(S(=O)(=O)c4cccc([N+](=O)[O-])c4)CC3)c(F)c2)C(=O)O1`, the MIC turned out to be 4 µg/mL (≈ 7.67 µM) in assay [1]; 0.5 µg/mL (≈ 0.959 µM) in assay [2]; 1 µg/mL (≈ 1.92 µM) in assay [3]; 0.25 µg/mL (≈ 0.479 µM) in assay [4]; 4 µg/mL (≈ 7.67 µM) in assay [5].

As to `CC(=O)NC[C@H]1CN(c2ccc(N3CCN(S(=O)(=O)c4ccccc4)CC3)c(F)c2)C(=O)O1`, the MIC in assay [1] is 4 µg/mL (≈ 8.39 µM); in assay [2] it was 1 µg/mL (≈ 2.1 µM); in assay [3], 2 µg/mL (≈ 4.2 µM); in assay [4], 0.25 µg/mL (≈ 0.525 µM); in assay [5] it was 4 µg/mL (≈ 8.39 µM).

`CC(=O)NC[C@H]1CN(c2ccc(N3CCN(S(=O)(=O)c4ccc(NC(C)=O)cc4)CC3)c(F)c2)C(=O)O1`: the MIC in assay [1] came out at 32 µg/mL (≈ 60 µM); in assay [2] it was 4 µg/mL (≈ 7.5 µM); in assay [3], 32 µg/mL (≈ 60 µM); in assay [4] it was 1 µg/mL (≈ 1.87 µM); in assay [5], 32 µg/mL (≈ 60 µM).

As to `CC(=O)NC[C@H]1CN(c2ccc(N3CCN(S(=O)(=O)c4ccccc4NC(C)=O)CC3)c(F)c2)C(=O)O1`, the MIC in assay [1], in assay [2], in assay [3], in assay [4] and in assay [5] was over 64 µg/mL throughout.

Regarding `CC(=O)NC[C@H]1CN(c2ccc(N3CCN(S(=O)(=O)c4ccccc4N)CC3)c(F)c2)C(=O)O1`, the MIC in assay [1] was found to be 8 µg/mL (≈ 16.3 µM); in assay [3], 2 µg/mL (≈ 4.07 µM); in assay [4] it was 4 µg/mL (≈ 8.14 µM); in assay [5] it was 2 µg/mL (≈ 4.07 µM).

With `CC(=O)NC[C@H]1CN(c2ccc(N3CCOCC3)c(F)c2)C(=O)O1` [LINEZOLID], the MIC in assay [2] came out at 1 µg/mL (≈ 2.96 µM); in assay [4], 0.5 µg/mL (≈ 1.48 µM); in assay [5], 2 µg/mL (≈ 5.93 µM).
